{"source": "patent US10336792B2", "about": "“Antimicrobial peptide dendrimers” (priority 2014, dated 2019)", "key": {"[1]": {"system": "Bacillus subtilis (strain BR151)", "assay_type": "cell-based", "conditions": "LB medium", "in_short": "(§1)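 Broth microdilution MIC in LB; overnight cultures diluted to OD600 0.001 and mixed 1:1 with ⅔-serially diluted samples (stock 1 mg mL^−1 in H2O), 37° C for 18-24 h. MTT (0.1%) added; MIC read by eye as lowest concentration inhibiting visible growth (yellow).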"}, "[2]": {"system": "Escherichia coli (strain DH5α)", "assay_type": "cell-based", "conditions": "LB medium", "in_short": "as §1"}, "[3]": {"system": "human red blood cells (hRBC)", "test": "Haemolysis assay, minimal haemolytic concentration (MHC)", "assay_type": "cell-based", "conditions": "hRBC in PBS pH 7.4, 4 h, room temperature", "protocol": "To determine the minimal haemolytic concentration (MHC) stock solutions of 8 mg/mL of the peptide dendrimers in H2O were prepared and 50 μL were diluted serially by ½ in 50 μL PBS (pH 7.4) in 96-well plate (Cornstar or Nunc, polystyrene, untreated). Human red blood cells (hRBC) were obtained by centrifuging 1.5 mL of whole blood from friendly donors at 3000 rpm for 15 minutes. Plasma was discarded and the pellet was re-suspended in a 15 mL falcon tube up to 5 mL of PBS. The washing was repeated three times and the remaining pellet was re-suspended in 10 mL of PBS at a final hRBC concentration of 5%. The hRBC suspension (50 μL) was added to each well and the plate was incubated at room temperature for 4 hours. Minimal haemolytic concentration (MHC) end points were determined by visual inspection of the wells after the incubation period. Controls on each plate included a blank medium control (50 μl PBS+50 μl of hRBC suspension) and a haemolytic activity control (mQ-deionized water 50 μL+50 μL hRBC suspension).\nMIC (minimal inhibitory concentration) and MHC (minimal haemolytic concentration, determined on human red blood cells (hRBC)) values are given in μg/mL. When no detectable haemolytic activity was observed, the last measured concentration was used for calculation of the therapeutic index. TI (therapeutic index)=MHC (μg/ml)/geometric mean of MIC (μg/ml). Larger values indicate greater antimicrobial specificity."}, "[4]": {"test": "Proteolytic stability with human serum", "assay_type": "in vitro ADME", "conditions": "100 μM peptide, human serum diluted with DMEM, 37 °C, up to 24 h", "protocol": "Peptides and peptide dendrimers were prepared as 200 μM stock solution in PBS. 25% Human Serum (diluted with DMEM) was centrifuged at for 15 min at 14000 rpm to remove the lipids and supernatant was collected and incubated for 15 min at 37° C. Proteolysis was initiated upon addition of 50 μL of the test peptide or peptide dendrimer to 50 μL of serum and shaking at 37° C. Final peptide concentration is 100 μM. Reaction mixtures were analyzed after 0, 1, 6, 24 h by addition of ice-cold 10% Trichloroacetic acid (TCA) to precipitate serum proteins. The supernantant was collected for each sample after centrifugation at 14000 rpm for 15 min. and evaporated with a speedvac. After dissolving the solid in 100 μL mQ-H2O they were analyzed by RP-UPLC (flow rate: 1.2 mL/min. gradient: A/D=100/0 to 0/100 in 7.5 min). Conversions of the remaining peptide and peptide dendrimers were calculated by integration of the absorbance at 214 nm by using Chromeleon software.\nThe peptides were mixed with human serum (previously diluted with DMEM) to a final peptide concentration of 100 μM to determine the stability of AMPDs toward proteases and incubated at 37° C. for 0, 1, 6, or 24 hours. After precipitation of proteins with TCA, the solution was analyzed by analytical RP-UPLC. […] AMPDs MSt-114, MSt-136, MSt-138, MSt-139, MSt-140 and MSt-176 were also checked for their stability. […]"}, "[5]": {"system": "P. aeruginosa PAO1 bacterial suspension", "test": "Detection of peptide in the presence of bacteria", "assay_type": "in vitro ADME, Pseudomonas aeruginosa", "conditions": "100 μM peptide, P. aeruginosa PAO1 in LB, 37 °C, up to 24 h", "protocol": "Peptides and peptide dendrimers were prepared as 200 μM stock solution in H2O. A colony of bacteria was grown in LB-medium overnight at 37° C. The concentration was quantified by measuring absorbance at 600 nm and diluted to OD600=0.2. Degradation was initiated upon addition of 50 μL of the test peptide or peptide dendrimer to 50 μL of the bacterial suspension and shaking at 37° C. Final peptide concentration is 100 μM and final concentration of bacteria is OD600=0.1 (1×10^8 CFU/mL). Reaction mixtures were analyzed after 0, 1, 6, 9, 24 h by heating up to 95° C. for 5 min. followed by centrifugation for 15 min. at 14000 rpm. 50 μL of the supernantant were collected for each sample and 50 μL A were added giving a concentration of 50 μM. 5 μL of 4-Hydroxybenzoic acid (standard) were added before samples were analyzed by RP-UPLC (flow rate: 1.2 mL/min. gradient: A/D=100/0 to 0/100 in 7.5 min). Conversions of the remaining peptide and peptide dendrimers were calculated by integration of the absorbance at 214 nm by using Chromeleon software.\nBacteria were grown in LB overnight and diluted to OD600=0.2. After addition of the peptides to a concentration of 100 μM the samples were incubated for 0, 1, 6, 9, 24 hours at 37° C. After heating the suspension to 95° C. for 5 min and centrifugation the solution was subjected to UPLC and the remaining peptide was analyzed by using Chromeleon software."}}, "note": "Residues, ends and D or L forms follow the SMILES beside them."}
{"smiles": "CC(C)C[C@H](NC(=O)[C@H](CC(C)C)NC(=O)[C@H](CCCCN)NC(=O)[C@H](C)NC(=O)[C@H](CC(C)C)NC(=O)[C@H](CCCCN)NC(=O)[C@H](CCCCN)NC(=O)[C@H](CC(C)C)NC(=O)[C@H](C)NC(=O)[C@H](CCCCN)NC(=O)[C@H](CCCCN)NC(=O)[C@H](Cc1ccc(O)cc1)NC(=O)[C@@H](N)CCCCN)C(N)=O", "note": "[RHe-9, (KYKKALKKLAKLL), reference compound] (H-KYKKALKKLAKLL-NH2)", "values": [{"measurement": "MIC B. subtilis BR151", "setting": "[1]", "value": 4, "unit": "µg/mL"}, {"measurement": "MIC E. coli DH5α", "setting": "[2]", "value": "<1", "unit": "µg/mL"}, {"measurement": "MHC (minimal haemolytic concentration)", "setting": "[3]", "value": "not haemolytic"}, {"measurement": "Stability in human serum (remaining peptide signal, RP-UPLC)", "setting": "[4]", "value": "completely disappeared"}, {"measurement": "Stability in bacterial suspension (remaining peptide, UPLC)", "setting": "[5]", "value": "not detectable after 9 hours"}]}
